Here are results for two molecules from patent publication US9045650B2, “Polymer with salt groups and antifouling coating composition comprising said polymer” (AKZO NOBEL COATINGS INTERNATIONAL B.V., priority 2008, dated 2015).

This data set is described as follows: Salt formation of monomeric salts analysed by spectroscopic methods (IR, 1H NMR) and observation on mixing. It counts as physicochemical. The note with it: solid sample, ATR. As to the method: The monomeric salt was analysed using infra-red (IR) spectroscopy (solid sample analysis using Avatar 360 infra-red spectrometer with Golden Gate diamond ATR attachment).
In an effort to further illustrate the relationship between acid/base pKa and the stability of the resulting polymer, a series of monomeric salts was prepared and analysed by spectroscopic methods.
Each of the monomeric salts were prepared by mixing the constituent acid/base starting materials in methanol at a concentration of 1.968 M. Following the addition of the acid/base starting materials, the mixture was stirred at room temperature for 24 h. The monomeric salt was then isolated by evaporation of the solvent.
^1H NMR spectroscopy was carried out on a CDCl3 solution of the monomeric salt (0.0827 M). Peaks associated with resonances for both CH2 groups present in the DMAEMA moiety were seen to shift downfield in the spectrum of this sample when compared to the reference spectrum of the DMAEMA starting material (CH2—CH2—NMe2 δ 4.25 shifted to δ 4.6 and CH2—CH2—NMe2 δ 2.6 shifted to δ 3.5). […] This is attributed to the change in the chemical environment of the CH2 resonances as a result of the complete protonation of the neighbouring NMe2 moiety.

Take `C=C(C)C(=O)NCCCN(C)C.CCCCCCCCCCCCCCCC(=O)O` [Comparative Example A (monomeric salt)]: the “salt formation by IR spectroscopy” value is “incomplete salt formation”.

Regarding `C=C(C)C(=O)NCCCN(C)C.CCCCCC(=O)O` [Comparative Example C], the “salt formation by IR spectroscopy” value is on record as “incomplete salt formation”.
